# Source: PubChem BioAssay (NCI)
#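 Grown in 96-well plates, cells were treated for 48 hours with each compound at five concentrations. Insufficient inhibition: endpoint recorded as highest concentration tested. TGI is the concentration that stops growth completely.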
# Assays:
# Test in all cases: inhibition of tumour cell growth, NCI panel, 48 h
# [1] = system: A498 renal
# [2] = system: A549 NSCLC
# [3] = system: HL-60(TB) leukemia
# [4] = system: HOP-62 NSCLC
# [5] = system: HOP-92 NSCLC
# [6] = system: IGROV1 ovarian
# [7] = system: MALME-3M melanoma
# [8] = system: NCI-H23 lung
# [9] = system: NCI-H522 lung
# [10] = system: OVCAR-3 ovarian
# [11] = system: SK-MEL-2 melanoma
# [12] = system: SW-620 colon
# [13] = system: SF-539 CNS
# [14] = system: SNB-75 CNS
smiles,measurement,setting,value
CC(CN(C)C)C(=O)c1ccccc1C(=O)O (configuration not stated),TGI,[1],> 100 µM
same,TGI,[2],> 100 µM
same,TGI,[3],49.4 µM
same,TGI,[4],85.8 µM
same,TGI,[5],> 100 µM
same,TGI,[6],> 100 µM
same,TGI,[7],83 µM
same,TGI,[8],89.1 µM
same,TGI,[9],36.6 µM
same,TGI,[10],54.1 µM
same,TGI,[11],46.9 µM
same,TGI,[12],> 100 µM
Nc1ccc(-c2ncc3cc(-c4cccc(-c5cc6cnc(-c7ccc(N)cc7)nc6c6ccccc56)c4)c4ccccc4c3n2)cc1,TGI,[1],> 100 µM
same,TGI,[2],> 100 µM
same,TGI,[4],> 100 µM
same,TGI,[5],> 100 µM
same,TGI,[6],> 100 µM
same,TGI,[8],> 100 µM
same,TGI,[9],> 100 µM
same,TGI,[10],> 100 µM
same,TGI,[13],> 100 µM
same,TGI,[11],> 100 µM
same,TGI,[14],> 100 µM
same,TGI,[12],> 100 µM
C[C@@]12c3c4ccc(C=O)c3Oc3ccc(C=O)c(c31)Oc1c(C=O)ccc(c12)O4,TGI,[1],> 100 µM
same,TGI,[2],> 100 µM
same,TGI,[4],> 100 µM
same,TGI,[5],> 100 µM
same,TGI,[6],> 100 µM
same,TGI,[7],> 100 µM
same,TGI,[8],> 100 µM
same,TGI,[10],> 100 µM
same,TGI,[13],> 100 µM
same,TGI,[11],> 100 µM
same,TGI,[14],> 100 µM
same,TGI,[12],> 100 µM
Oc1[nH]c2ccccc2c1N=NC(=S)N1CCCCC1,TGI,[1],1.99 µM
same,TGI,[2],3.44 µM
same,TGI,[4],3.83 µM
same,TGI,[5],6.58 µM
same,TGI,[6],1.77 µM
same,TGI,[7],2.2 µM
same,TGI,[8],9.14 µM
same,TGI,[9],15.5 µM
same,TGI,[10],1.7 µM
same,TGI,[13],1.49 µM
same,TGI,[11],6.12 µM
same,TGI,[14],6.71 µM
same,TGI,[12],8.63 µM
COC(=O)CCC1(C)C2CCC1(C)/C(=N/O)C2 (configuration not stated),TGI,[2],> 100 µM
same,TGI,[4],> 100 µM
same,TGI,[6],> 100 µM
same,TGI,[7],> 100 µM
same,TGI,[8],> 100 µM
same,TGI,[9],> 100 µM
same,TGI,[10],> 100 µM
same,TGI,[11],> 100 µM
same,TGI,[14],> 100 µM
same,TGI,[12],> 100 µM
CCC(CC)C(=O)OC[n+]1ccc(-c2c(COC(=O)NC(C)C)c(COC(=O)NC(C)C)c3n2CCC3)cc1,TGI,[1],> 100 µM
same,TGI,[2],> 100 µM
same,TGI,[3],> 100 µM
same,TGI,[4],> 100 µM
same,TGI,[5],> 100 µM
same,TGI,[6],> 100 µM
same,TGI,[8],> 100 µM
same,TGI,[9],> 100 µM
same,TGI,[10],> 100 µM
same,TGI,[13],> 100 µM
same,TGI,[12],> 100 µM
COC(=O)/C=C/c1cnc2c(c1)oc(=O)n2CCc1ccccn1,TGI,[1],> 100 µM
same,TGI,[2],> 100 µM
same,TGI,[3],9.78 µM
same,TGI,[4],> 100 µM
same,TGI,[6],> 100 µM
same,TGI,[7],> 100 µM
same,TGI,[8],> 100 µM
same,TGI,[10],> 100 µM
same,TGI,[13],> 100 µM
same,TGI,[11],> 100 µM
same,TGI,[14],> 100 µM
same,TGI,[12],> 100 µM
O=c1[nH]c(=O)n(C2CC(O)C(CO)O2)cc1NN=NCCc1ccccc1 (configuration not stated),TGI,[2],> 100 µM
same,TGI,[3],> 100 µM
same,TGI,[4],> 100 µM
same,TGI,[6],> 100 µM
same,TGI,[7],> 100 µM
same,TGI,[8],> 100 µM
same,TGI,[9],> 100 µM
same,TGI,[10],> 100 µM
same,TGI,[14],> 100 µM
C/C(=N/NC(=O)c1ccncc1)c1ccc(NC(=O)C(=O)Nn2c(=S)[nH]c3ccccc3c2=O)cc1,TGI,[1],> 100 µM
same,TGI,[2],> 100 µM
same,TGI,[4],> 100 µM
same,TGI,[5],> 100 µM
same,TGI,[6],> 100 µM
same,TGI,[7],> 100 µM
same,TGI,[8],> 100 µM
same,TGI,[9],> 100 µM
same,TGI,[10],> 100 µM
same,TGI,[13],> 100 µM
same,TGI,[11],> 100 µM
same,TGI,[14],> 100 µM
same,TGI,[12],> 100 µM
COc1cc2cc[n+](C)c(Cc3ccccc3)c2cc1OC,TGI,[1],> 100 µM
same,TGI,[2],> 100 µM
same,TGI,[5],> 100 µM
same,TGI,[6],> 100 µM
same,TGI,[7],> 100 µM
same,TGI,[8],> 100 µM
same,TGI,[9],> 100 µM
same,TGI,[10],> 100 µM
same,TGI,[13],> 100 µM
same,TGI,[11],> 100 µM
same,TGI,[14],> 100 µM
same,TGI,[12],> 100 µM
CCOC(=O)N1CCN(c2c(C)nc(C)[nH]c2=O)CC1,TGI,[1],> 100 µM
same,TGI,[2],> 100 µM
same,TGI,[3],> 100 µM
same,TGI,[4],> 100 µM
same,TGI,[5],> 100 µM
same,TGI,[6],> 100 µM
same,TGI,[7],> 100 µM
same,TGI,[8],> 100 µM
same,TGI,[9],> 100 µM
same,TGI,[10],> 100 µM
same,TGI,[13],> 100 µM
same,TGI,[12],> 100 µM
CCOC(=O)[C@@H]1C[C@H]1c1ccc(O)c(O)c1,TGI,[2],> 100 µM
same,TGI,[4],> 100 µM
same,TGI,[5],> 100 µM
same,TGI,[6],> 100 µM
same,TGI,[7],> 100 µM
same,TGI,[8],> 100 µM
same,TGI,[9],47.2 µM
same,TGI,[10],> 100 µM
same,TGI,[13],> 100 µM
same,TGI,[11],61.5 µM
same,TGI,[12],> 100 µM
Cn1c(NN)nc(-c2ccc([N+](=O)[O-])cc2)c(C#N)c1=O,TGI,[2],43.4 µM
same,TGI,[3],> 100 µM
same,TGI,[4],27.1 µM
same,TGI,[6],39.9 µM
same,TGI,[7],29.7 µM
same,TGI,[8],26.2 µM
same,TGI,[9],29.9 µM
same,TGI,[10],34.3 µM
same,TGI,[11],41.3 µM
same,TGI,[14],34.7 µM
same,TGI,[12],25.2 µM
CC(C)(N)CO[C@H]1C[C@H]2CC[C@@]1(C)C2(C)C,TGI,[1],82.1 µM
same,TGI,[2],> 100 µM
same,TGI,[4],44 µM
same,TGI,[5],49.1 µM
same,TGI,[6],> 100 µM
same,TGI,[7],33.6 µM
same,TGI,[8],66 µM
same,TGI,[9],37.1 µM
same,TGI,[10],> 100 µM
same,TGI,[13],41 µM
same,TGI,[11],35.3 µM
same,TGI,[14],39.3 µM
same,TGI,[12],54.4 µM
O=C(O)CN=C(C(=NCC(=O)O)c1ccccc1)c1ccccc1,TGI,[1],> 100 µM
same,TGI,[2],> 100 µM
same,TGI,[4],> 100 µM
same,TGI,[7],> 100 µM
same,TGI,[8],> 100 µM
same,TGI,[9],> 100 µM
same,TGI,[10],> 100 µM
same,TGI,[11],> 100 µM
same,TGI,[14],> 100 µM
same,TGI,[12],> 100 µM
COc1ccc(-c2cc(-c3ccc(Cl)cc3)n(C3OC(CO)C(O)C(O)C3O)c(=S)c2C#N)cc1 (configuration not stated),TGI,[4],> 100 µM
same,TGI,[5],> 100 µM
same,TGI,[6],> 100 µM
same,TGI,[13],> 100 µM
same,TGI,[11],97.9 µM
same,TGI,[14],> 100 µM
same,TGI,[12],> 100 µM
CCN(CC)CCNc1ccc2ncn3c4c(OC)ccc(OC)c4c(=O)c1c23,TGI,[1],> 100 µM
same,TGI,[2],54.4 µM
same,TGI,[4],> 100 µM
same,TGI,[5],31.2 µM
same,TGI,[7],41.8 µM
same,TGI,[8],75.5 µM
same,TGI,[9],44.2 µM
same,TGI,[10],> 100 µM
same,TGI,[13],44.1 µM
same,TGI,[14],23.3 µM
same,TGI,[12],18.2 µM
CC1(C)OCC2(CO1)CSCCCSCC1(COC(C)(C)OC1)CSCCCSC2,TGI,[2],> 100 µM
same,TGI,[3],> 100 µM
same,TGI,[4],> 100 µM
same,TGI,[5],> 100 µM
same,TGI,[6],> 100 µM
same,TGI,[8],> 100 µM
same,TGI,[9],> 100 µM
same,TGI,[10],> 100 µM
same,TGI,[13],> 100 µM
same,TGI,[14],> 100 µM
same,TGI,[12],> 100 µM
CCSc1c(C)c2c(n(Cc3ccc(OC)cc3)c1=O)Cc1ccccc1C2,TGI,[2],> 100 µM
same,TGI,[3],31.6 µM
same,TGI,[4],> 100 µM
same,TGI,[6],54.2 µM
same,TGI,[7],45.7 µM
same,TGI,[8],> 100 µM
same,TGI,[9],40.1 µM
same,TGI,[10],> 100 µM
same,TGI,[13],80.1 µM
same,TGI,[11],66 µM
same,TGI,[14],> 100 µM
same,TGI,[12],84 µM
O=C(O)c1nc2cc(C(F)(F)F)ccc2nc1Nc1ccc(Cl)c(Cl)c1,TGI,[1],31.1 µM
same,TGI,[2],21.8 µM
same,TGI,[4],27.6 µM
same,TGI,[5],23.1 µM
same,TGI,[6],39.3 µM
same,TGI,[7],38.7 µM
same,TGI,[8],31.7 µM
same,TGI,[9],31.4 µM
same,TGI,[10],26.4 µM
same,TGI,[13],23.7 µM
same,TGI,[11],8.25 µM
same,TGI,[14],53.3 µM
same,TGI,[12],22.7 µM
